Among the test systems are SF-268; KM12; NCI-H226; NCI-H522; UO-31; SK-MEL-28; PC-3; SW-620; MDA-MB-231; K562; BT-549; HL-60; HT-29; SF-295; SF-539; IGROV-1; M14; SN12C; Hs-578T; HOP-62.
Common to all, as to experiment: NCI tumour cell line growth inhibition, 48 h

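In this assay, cells in 96-well plates receive the compound at five concentrations for 48 hours. Endpoints are linearly interpolated between the surrounding concentrations. GI50 marks 50% less growth.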 Calls of active or inactive are those of the source. Rule as the data show it: active = GI50 up to about 1.1 µM and inactive = higher.

The text below walks through data of ChEMBL document CHEMBL1201862, “PubChem BioAssay data set” (2004).

With `O=C(NCCCNC(=O)c1ccc2c(O)c(O)ccc2c1)c1ccc2c(O)c(O)ccc2c1`, the GI50 with SF-268 is 22.9 µM (inactive); in the experiment with KM12, 18.3 µM (inactive); with NCI-H226, 63 µM (inactive); in the experiment on NCI-H522 it was 23.8 µM (inactive); in the experiment with UO-31 it was 26.6 µM (inactive); with SK-MEL-28, 97.9 µM (inactive). Moreover, the GI50 in the experiment with PC-3 was 47.1 µM (inactive); with SW-620, 25.5 µM (inactive); in the experiment on MDA-MB-231 it was 29.6 µM (inactive); with K562 it was 19.1 µM (inactive); in the experiment with BT-549, 18.7 µM (inactive); in the experiment with HL-60, 6.32 µM (inactive). Further, the GI50 in the experiment on HT-29 is 26.2 µM (inactive); in the experiment on SF-295 it was 19.2 µM (inactive); in the experiment on SF-539, 28.1 µM (inactive); in the experiment with IGROV-1 it was 18.8 µM (inactive); with M14, 26.6 µM (inactive); in the experiment on SN12C, 22.4 µM (inactive). Also, the results for the GI50 in the experiment on Hs-578T and in the experiment on HOP-62 were 18.5 µM (inactive) and 21.2 µM (inactive), respectively.
Take `CCCCCCCCCCCCCC(=O)N(CCCCCCCCC)CC(O)C(O)C(OC1OC(CO)C(O)C(O)C1O)C(O)CO` (centres undefined): the GI50 is 19.1 µM (inactive) in the experiment on SF-268; 17.7 µM (inactive) with KM12; 18.7 µM (inactive) in the experiment with NCI-H226; 23 µM (inactive) with NCI-H522; 19.1 µM (inactive) in the experiment on UO-31; 18.1 µM (inactive) in the experiment on SK-MEL-28. Also, the GI50 with PC-3 was 21.8 µM (inactive); in the experiment with SW-620 it was 19.9 µM (inactive); in the experiment with MDA-MB-231, 20.7 µM (inactive); with K562 it was 19.9 µM (inactive); in the experiment on BT-549 it was 22.9 µM (inactive); in the experiment on HL-60 it was 23.3 µM (inactive). For the same compound, the GI50 with HT-29 is 18.5 µM (inactive); in the experiment on SF-295, 20.7 µM (inactive); in the experiment on SF-539, 22 µM (inactive); in the experiment on IGROV-1 it was 20.2 µM (inactive); with M14, 20.1 µM (inactive); with SN12C, 19.8 µM (inactive). The GI50 in the experiment with Hs-578T was 22.5 µM (inactive); in the experiment with HOP-62, 24.6 µM (inactive).
Turning to `COc1ccc(/N=C(/SS/C(=N/c2ccc(OC)cc2)c2ccc([N+](=O)[O-])o2)c2ccc([N+](=O)[O-])o2)cc1`, the GI50 with SF-268 is 1.89 µM (inactive); in the experiment with KM12 it was 1.14 µM (inactive); in the experiment on NCI-H226, 10.1 µM (inactive); with NCI-H522, 0.286 µM (active); in the experiment with UO-31 it was 1.24 µM (inactive); in the experiment on SK-MEL-28, 2.49 µM (inactive). Also, the GI50 was 0.838 µM (active) in the experiment on PC-3; 0.35 µM (active) in the experiment with SW-620; 2.77 µM (inactive) in the experiment on MDA-MB-231; 1.19 µM (inactive) in the experiment on K562; 1.54 µM (inactive) in the experiment on BT-549; 1.69 µM (inactive) in the experiment on HL-60. In addition, the GI50 with HT-29 was 0.701 µM (active); with SF-295, 2.16 µM (inactive); in the experiment on SF-539 it was 1.49 µM (inactive); with IGROV-1, 1.75 µM (inactive); in the experiment on M14, 1.7 µM (inactive); in the experiment on SN12C, 1.95 µM (inactive). For the same compound, the GI50 was 2.19 µM (inactive) in the experiment on Hs-578T and 1.94 µM (inactive) with HOP-62.
Regarding `Cc1c2c(c(C)n1-c1ccccc1)C(=O)N(CCCCN1CCN(c3ccccc3)CC1)C2=O`, the GI50 is 37.8 µM (inactive) in the experiment with SF-268; 19.5 µM (inactive) in the experiment on KM12; 9.68 µM (inactive) in the experiment with NCI-H226; 12.9 µM (inactive) in the experiment with NCI-H522; 4.17 µM (inactive) in the experiment with UO-31; 6.82 µM (inactive) in the experiment on PC-3. Also, the GI50 was 18.9 µM (inactive) with SW-620; 10 µM (inactive) in the experiment on MDA-MB-231; 4.22 µM (inactive) with K562; 16.9 µM (inactive) in the experiment with BT-549; 5.5 µM (inactive) in the experiment with HL-60; 2.57 µM (inactive) with HT-29. Also, the GI50 was 14.6 µM (inactive) in the experiment with SF-295; 12 µM (inactive) in the experiment with SF-539; 15.1 µM (inactive) in the experiment with IGROV-1; 9.53 µM (inactive) in the experiment with M14; 13.1 µM (inactive) in the experiment with SN12C; 20.2 µM (inactive) in the experiment with Hs-578T. For the same compound, the GI50 with HOP-62 is 7.73 µM (inactive).
In the case of `O=C(O)c1ccccc1/C=N/N=C1NCCN1`, the GI50 is 97.9 µM (inactive) in the experiment with SF-268; > 100 µM (inactive) in the experiment with KM12; > 100 µM (inactive) in the experiment with NCI-H226; 71.8 µM (inactive) in the experiment on NCI-H522; 44.4 µM (inactive) with UO-31; > 100 µM (inactive) in the experiment with SK-MEL-28. Also, the GI50 in the experiment on PC-3 is > 100 µM (inactive); in the experiment on SW-620 it was > 100 µM (inactive); in the experiment on MDA-MB-231 it was > 100 µM (inactive); in the experiment on K562, > 100 µM (inactive); in the experiment on BT-549, > 100 µM (inactive); with HL-60 it was 49.4 µM (inactive). Also, the GI50 in the experiment with HT-29, in the experiment with SF-295, in the experiment on SF-539, with IGROV-1, in the experiment with M14 and in the experiment on Hs-578T was > 100 µM (inactive) each time. For the same compound, the GI50 with HOP-62 was > 100 µM (inactive).
`O=c1oc2ccccc2cc1P(=O)(O)O`: the GI50 with SF-268, with NCI-H226, in the experiment with NCI-H522, in the experiment on SK-MEL-28, in the experiment with PC-3 and with SW-620 was > 100 µM (inactive) each time. Also, the GI50 with MDA-MB-231, with K562, in the experiment on BT-549, with HL-60, in the experiment on HT-29 and with SF-295 was > 100 µM (inactive) throughout. For the same compound, the GI50 in the experiment on SF-539, with IGROV-1, in the experiment with M14, with SN12C, with Hs-578T and in the experiment on HOP-62 was > 100 µM (inactive) in each case.
For the compound `C1=CN2C[n+]3cccc(OCc4ccccc4)c3N=C2C(OCc2ccccc2)=C1`, the GI50 with SF-268 was 6.25 µM (inactive); in the experiment with NCI-H226 it was 29.4 µM (inactive); in the experiment with NCI-H522, 2.65 µM (inactive); in the experiment with UO-31, > 100 µM (inactive); with SK-MEL-28 it was 14.2 µM (inactive); with PC-3, 26.5 µM (inactive). Moreover, the GI50 with SW-620 is 11.9 µM (inactive); in the experiment on MDA-MB-231 it was 16.8 µM (inactive); with K562, < 0.01 µM (active); in the experiment with BT-549 it was 0.344 µM (active); in the experiment with HL-60 it was 0.142 µM (active); with HT-29, 8.04 µM (inactive). For the same compound, the GI50 with SF-295 is 6.84 µM (inactive); in the experiment on SF-539, 4.25 µM (inactive); with IGROV-1, 11.5 µM (inactive); in the experiment with M14, 16.4 µM (inactive); with SN12C, 3.43 µM (inactive); in the experiment on Hs-578T it was 2.36 µM (inactive). Also, in the experiment with HOP-62, the GI50 is 17.6 µM (inactive).
As to `Cc1ccc(Nc2cc(=O)[nH]c(=S)[nH]2)cc1`, the GI50 with SF-268, with KM12, in the experiment with NCI-H226, in the experiment with NCI-H522, with UO-31 and in the experiment on PC-3 was > 100 µM (inactive) each time. For the same compound, the GI50 with SW-620, with MDA-MB-231, with K562, in the experiment on BT-549, in the experiment on HL-60 and in the experiment on HT-29 was > 100 µM (inactive) throughout. The GI50 with SF-295, with SF-539, in the experiment on IGROV-1, with M14, in the experiment on SN12C and in the experiment on Hs-578T was > 100 µM (inactive) each time. Moreover, in the experiment with HOP-62, the GI50 was > 100 µM (inactive).
For `O=C(O)Cn1ccc(=O)c2cc([N+](=O)[O-])ccc21`, the GI50 in the experiment with SF-268, in the experiment on KM12, with NCI-H226, with NCI-H522, in the experiment with UO-31 and with SK-MEL-28 was > 100 µM (inactive) in each case. In addition, the GI50 is > 100 µM (inactive) in the experiment with PC-3; > 100 µM (inactive) in the experiment on SW-620; 19.4 µM (inactive) in the experiment on MDA-MB-231; > 100 µM (inactive) in the experiment with K562; > 100 µM (inactive) in the experiment with BT-549; > 100 µM (inactive) in the experiment on HL-60. The GI50 in the experiment with HT-29, in the experiment on SF-295, in the experiment on SF-539, in the experiment on IGROV-1, in the experiment with M14 and in the experiment with SN12C was > 100 µM (inactive) each time. The GI50 in the experiment with Hs-578T and with HOP-62 was > 100 µM (inactive) in each case.
For `COc1cc(/C=C\c2ccc(C)cc2)cc(OC)c1OC`, the GI50 in the experiment with SF-268 is 0.00505 µM (active); in the experiment on KM12, 0.00531 µM (active); in the experiment with NCI-H226, 0.0266 µM (active); in the experiment on NCI-H522, 0.00323 µM (active); in the experiment with UO-31, 0.12 µM (active); in the experiment with SK-MEL-28, 0.0167 µM (active). Also, the GI50 in the experiment with PC-3 is 0.0123 µM (active); in the experiment with SW-620, 0.00192 µM (active); with MDA-MB-231, 0.0259 µM (active); with K562 it was 0.00131 µM (active); in the experiment with BT-549, 0.0246 µM (active); with HL-60, 0.00057 µM (active). The GI50 with HT-29 is 0.00783 µM (active); in the experiment on SF-295, 0.00188 µM (active); with SF-539 it was 0.00296 µM (active); in the experiment on IGROV-1 it was 0.0466 µM (active); in the experiment with M14 it was 0.00723 µM (active); with SN12C it was 0.0105 µM (active). Besides, the figures for the GI50 in the experiment on Hs-578T and in the experiment with HOP-62 were 0.0244 µM (active) and 0.0355 µM (active), respectively.
